Experimental data taken from the supplement of paper PMC9013687.

Assays:
Danio rerio embryo [1] = settings: exposure time: 4 dpf
Protocol: (§1)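 Zebrafish embryos (UFZ-OBI strain) were exposed from 2 hpf for 48 h (2 dpf) or 96 h (4 dpf) at 28 °C; spontaneous tail coiling was scored at 25 hpf. Morphological features from automated image analysis (FishInspector), heart rate and locomotor response were fitted with drc models. Quantal endpoints were dichotomised at 2.5 SD from controls and fitted with a log-logistic model; heart rate, pigmentation and STC were normalised to the replicate control mean. Betamethasone was tested as betamethasone dipropionate, diflorasone as diflorasone diacetate.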

Danio rerio embryo [2] = test: EC10 Eye size_Decrease; higher = less potent; settings: exposure time: 4 dpf
Protocol: as §1

Danio rerio embryo [3] = test: EC20 Curvature_Increase; higher = less potent
Protocol: as §1

Danio rerio embryo [4] = test: EC50 Pericard size_Increase
Protocol: as §1

Danio rerio embryo [5] = test: EC10 Eye-jaw distance_Decrease; higher = less potent; settings: exposure time: 4 dpf
Protocol: as §1

Danio rerio embryo [6] = test: EC20 Body length_Decrease; higher = less potent; settings: exposure time: 4 dpf
Protocol: as §1

Danio rerio embryo [7] = test: EC50 Yolk sac size_Increase
Protocol: as §1

Danio rerio embryo [8] = settings: exposure time: 4 dpf; remark: listed apart in the source
Protocol: as §1

Danio rerio embryo [9] = test: EC10 Body length_Decrease; higher = less potent; settings: exposure time: 4 dpf
Protocol: as §1

Danio rerio embryo [10] = test: EC10 LMR dark; higher = less potent; settings: exposure time: 4 dpf
Protocol: as §1

Danio rerio embryo [11] = tested on: Danio rerio embryo
Protocol: as §1

Danio rerio embryo [12] = test: EC20 Yolk sac size_Increase; higher = less potent
Protocol: as §1

Danio rerio embryo [13] = test: EC10 Any effect; higher = less potent
Protocol: as §1

Danio rerio embryo [14] = test: EC10 Pericard size_Increase; higher = less potent
Protocol: as §1

Danio rerio embryo [15] = test: EC10 Otolith-eye distance_Decrease; higher = less potent; settings: exposure time: 4 dpf
Protocol: as §1

Danio rerio embryo [16] = test: EC10 Lack of SB; higher = less potent; settings: exposure time: 4 dpf
Protocol: as §1

Danio rerio embryo [17] = test: EC50 Eye-jaw distance_Decrease; settings: exposure time: 4 dpf
Protocol: as §1

Danio rerio embryo [18] = test: EC10 Yolk sac size_Increase; higher = less potent
Protocol: as §1

Danio rerio embryo [19] = test: EC50 Bladder size_Decrease; settings: exposure time: 4 dpf
Protocol: as §1

Danio rerio embryo [20] = test: EC50 Eye size_Decrease; settings: exposure time: 4 dpf
Protocol: as §1

CC1(C)O[C@@H]2[C@@H](CO[C@@]3(COS(N)(=O)=O)OC(C)(C)O[C@@H]23)O1 [Topiramate]
EC50 Heart rate (Danio rerio embryo [1]): 87.8 µM | EC10 Eye size Decrease (Danio rerio embryo [2]): 57.7 µM | EC20 Curvature Increase (Danio rerio embryo [3]; exposure time: 2 dpf): 1080 µM | EC20 Curvature Increase (Danio rerio embryo [3]; exposure time: 4 dpf): 591 µM | EC50 Pericard size Increase (Danio rerio embryo [4]; exposure time: 2 dpf): 208 µM | EC50 Pericard size Increase (Danio rerio embryo [4]; exposure time: 4 dpf): 563 µM | EC10 Eye-jaw distance Decrease (Danio rerio embryo [5]): 133 µM | EC20 Body length Decrease (Danio rerio embryo [6]): 46.4 µM | EC50 Yolk sac size Increase (Danio rerio embryo [7]; exposure time: 2 dpf): 990 µM | EC50 Yolk sac size Increase (Danio rerio embryo [7]; exposure time: 4 dpf): 303 µM | EC50 LMR dark (Danio rerio embryo [8]): 461 µM | EC10 Body length Decrease (Danio rerio embryo [9]): 24.1 µM | EC10 LMR dark (Danio rerio embryo [10]): 273 µM | EC50 Any effect (Danio rerio embryo [11]; exposure time: 2 dpf): 321 µM | EC50 Any effect (Danio rerio embryo [11]; exposure time: 4 dpf): 94.9 µM | EC20 Yolk sac size Increase (Danio rerio embryo [12]; exposure time: 2 dpf): 722 µM | EC20 Yolk sac size Increase (Danio rerio embryo [12]; exposure time: 4 dpf): 149 µM | EC10 Any effect (Danio rerio embryo [13]; exposure time: 2 dpf): 22 µM | EC10 Any effect (Danio rerio embryo [13]; exposure time: 4 dpf): 22.9 µM | EC10 Pericard size Increase (Danio rerio embryo [14]; exposure time: 2 dpf): 11.2 µM | EC10 Pericard size Increase (Danio rerio embryo [14]; exposure time: 4 dpf): 210 µM | EC10 Otolith-eye distance Decrease (Danio rerio embryo [15]): 24.4 µM | EC10 Lack of SB (Danio rerio embryo [16]): 29.7 µM | EC50 Eye-jaw distance Decrease (Danio rerio embryo [17]): 236 µM | EC10 Yolk sac size Increase (Danio rerio embryo [18]; exposure time: 2 dpf): 601 µM | EC10 Yolk sac size Increase (Danio rerio embryo [18]; exposure time: 4 dpf): 98.8 µM | EC50 Bladder size Decrease (Danio rerio embryo [19]): 49.5 µM | EC50 Eye size Decrease (Danio rerio embryo [20]): 242 µM
